From ChEMBL document CHEMBL1201862, “PubChem BioAssay data set” (2004)
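Grown in 96-well plates, cells were treated for 48 hours with each compound at five concentrations. Insufficient inhibition: endpoint recorded as highest concentration tested. GI50 = concentration required for 50% inhibition of growth.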 Calls of active or inactive are those of the source. No stated cut-off is given here; in the data, active = GI50 up to about 1.1 µM and inactive = higher.

Key:
Test in all cases: NCI anticancer screen, dose series, 48 h
IGROV-1 = test system: IGROV-1
LXFL 529 = test system: LXFL 529
NCI-H460 = test system: NCI-H460
SNB-78 = test system: SNB-78
CAKI-1 = test system: CAKI-1
A498 = test system: A498
HCT-116 = test system: HCT-116
KM12 = test system: KM12
DMS-114 = test system: DMS-114
SNB-75 = test system: SNB-75
UO-31 = test system: UO-31
OVCAR-8 = test system: OVCAR-8
M14 = test system: M14
DLD-1 = test system: DLD-1
SNB-19 = test system: SNB-19
LOX IMVI = test system: LOX IMVI
HCT-15 = test system: HCT-15
HOP-18 = test system: HOP-18
NCI-H23 = test system: NCI-H23
HT-29 = test system: HT-29
SK-OV-3 = test system: SK-OV-3
OVCAR-3 = test system: OVCAR-3
A549 = test system: A549
SF-268 = test system: SF-268
XF498 = test system: XF498
DMS-273 = test system: DMS-273
SF-295 = test system: SF-295
OVCAR-5 = test system: OVCAR-5
MOLT-4 = test system: MOLT-4
KM-20L2 = test system: KM-20L2
SK-MEL-5 = test system: SK-MEL-5
HOP-92 = test system: HOP-92
HCC 2998 = test system: HCC 2998
HL-60 = test system: HL-60
SW-620 = test system: SW-620
786-0 = test system: 786-0
ACHN = test system: ACHN
NCI-H226 = test system: NCI-H226
UACC-62 = test system: UACC-62
RXF 393 = test system: RXF 393
HOP-62 = test system: HOP-62
NCI-H522 = test system: NCI-H522
OVCAR-4 = test system: OVCAR-4
M19-MEL = test system: M19-MEL
K562 = test system: K562
SF-539 = test system: SF-539
Malme-3M = test system: Malme-3M
SN12C = test system: SN12C
UACC-257 = test system: UACC-257
EKVX = test system: EKVX
COLO 205 = test system: COLO 205
SR = test system: SR
SK-MEL-2 = test system: SK-MEL-2
U-251 = test system: U-251
CCRF-CEM = test system: CCRF-CEM
TK-10 = test system: TK-10
SK-MEL-28 = test system: SK-MEL-28

Measured: GI50

OCC(O)COc1ccc(F)cc1 (configuration not stated)
> 100 µM: HCT-15
inactive: IGROV-1 > 100 µM | LXFL 529 > 100 µM | NCI-H460 > 100 µM | SNB-78 > 100 µM | CAKI-1 > 100 µM | A498 > 100 µM | HCT-116 > 100 µM | KM12 > 100 µM | DMS-114 > 100 µM | SNB-75 > 100 µM | UO-31 > 100 µM | OVCAR-8 > 100 µM | M14 > 100 µM | DLD-1 > 100 µM | SNB-19 > 100 µM | LOX IMVI > 100 µM | HOP-18 > 100 µM | NCI-H23 > 100 µM | HT-29 > 100 µM | SK-OV-3 > 100 µM | OVCAR-3 > 100 µM | A549 > 100 µM | SF-268 > 100 µM | XF498 > 100 µM | DMS-273 > 100 µM | SF-295 > 100 µM | OVCAR-5 > 100 µM | MOLT-4 > 100 µM | KM-20L2 > 100 µM | SK-MEL-5 > 100 µM | HOP-92 > 100 µM | HCC 2998 > 100 µM | HL-60 > 100 µM | SW-620 > 100 µM | 786-0 > 100 µM | ACHN > 100 µM | NCI-H226 > 100 µM | UACC-62 > 100 µM | RXF 393 > 100 µM | HOP-62 > 100 µM | NCI-H522 > 100 µM | OVCAR-4 > 100 µM | M19-MEL > 100 µM | K562 > 100 µM | SF-539 > 100 µM | Malme-3M > 100 µM | SN12C > 100 µM | UACC-257 > 100 µM | EKVX > 100 µM | COLO 205 > 100 µM | SR > 100 µM | SK-MEL-2 > 100 µM | U-251 > 100 µM | CCRF-CEM > 100 µM | TK-10 > 100 µM | SK-MEL-28 > 100 µM
